Measured values reported in US20250320496A1, “MODULATION OF ABCB11 GENE TRANSCRIPTION USING ANTISENSE OLIGONUCLEOTIDES TARGETING REGULATORY RNAS” (CAMP4 Therapeutics Corporation, priority 2022, published 2025).
Strand notation (5' to 3'): a small letter for the sugar, then the base; units joined by * are phosphorothioate-linked, units joined directly phosphodiester-linked; [ ] holds rarer units or linkages, { } end groups; capitals alone tell only the bases. e = 2'-O-(2-methoxyethyl) (MOE); l = locked nucleic acid (LNA); [5mC] = 5-methylcytosine; d = 2'-deoxy (DNA)

System: human ABCB11 mRNA
Assay: ASO treatment of primary human hepatocytes (PHH), ABCB11 mRNA by RT-qPCR normalized to B2M
Format: cell-based
Settings: for ABCB11 FC mRNA (5 μM ASO vs. untreated) / ABCB11 mRNA FC (5 μM ASO vs. UNT): primary human hepatocytes; for ABCB11 FC mRNA (5 μM ASO vs. untreated): 5 μM ASO with PO-modifications, normalized to untreated hepatocytes; for ABCB11 mRNA FC (5 μM ASO vs. UNT): normalized to untreated PHHs (UNT)
Summary of the method: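 Plated primary human hepatocytes were treated 4 h post-thaw with ASO (e.g., 1.25–10 μM; initial screen 5 μM) in medium containing 0.3 mg/ml Matrigel for 72 hrs. Total RNA was reverse-transcribed and ABCB11 mRNA measured by Taqman RT-qPCR, normalized to B2M, with fold change versus untreated PHHs.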

Substance | ABCB11 mRNA FC (5 μM ASO vs. UNT) [fold change] | other results
CO-11244 (antisense eG*eT*eGeG*lAeG*e[5mC]eA*eAlA*e[5mC]eT*eAeG*lGe[5mC]*eAe[5mC]*eT*eG) |  | ABCB11 FC mRNA (5 μM ASO vs. untreated): 1.29 fold change
CO-7043 (antisense eT*eT*eG*e[5mC]*eT*eT*eG*eG*eT*e[5mC]*eA*eA*eG*eA*eG*eG*eA*eA*eA*eG) | 1.1 | 
CO-4063 (antisense eG*e[5mC]*eA*e[5mC]*e[5mC]*e[5mC]*eA*eA*e[5mC]*e[5mC]*eA*eA*eG*eT*e[5mC]*eT*eT*eG*eA*e[5mC]) | 1.457 | 
CO-7192 (eT*eG*eG*l[5mC]*eG*eT*eT*lA*eT*eT*eA*lA*eT*eT*e[5mC]*lT*eA*e[5mC]*eA*eG; antisense) | 1.591 | 
CO-7152 (antisense eA*e[5mC]*e[5mC]*eT*eT*eA*eG*dG*dA*dG*dG*dA*dT*dT*dA*dT*dT*eT*eA*eA*e[5mC]*e[5mC]*eT*e[5mC]) | 1.28 | 
CO-7011 (antisense eT*eG*eT*eG*eG*dA*dT*eG*dT*dA*eG*dA*dT*eG*dA*dA*eT*dG*dG*e[5mC]*eA*eA*eG*eG) | 1.284 | 
CO-4022 (antisense eG*eA*eT*eG*eA*e[5mC]*eT*e[5mC]*eT*eT*eG*eG*eT*eT*eG*e[5mC]*eT*eG*eT*e[5mC]) | 1.168 | 
CO-4480 (antisense e[5mC]*e[5mC]*eT*eG*eA*eG*eA*eT*eT*eG*eA*eG*e[5mC]*eT*eA*eT*eA*e[5mC]*eT*eG) | 0.931 | 
CO-4488 (antisense eA*eA*e[5mC]*eA*eT*eG*eT*e[5mC]*eA*eG*eA*e[5mC]*eA*eG*eT*eA*eG*eT*eT*e[5mC]) | 1.084 | 
CO-4032 (antisense eA*eG*eT*e[5mC]*e[5mC]*eA*eT*eT*eA*eT*eT*eT*e[5mC]*e[5mC]*eT*e[5mC]*eT*eG*eG*e[5mC]) | 1.311 | 
CO-7054 (antisense eA*e[5mC]*e[5mC]*e[5mC]*e[5mC]*d[5mC]*d[5mC]*dT*d[5mC]*dA*d[5mC]*d[5mC]*dT*dT*dG*eG*eT*eT*e[5mC]*e[5mC]) | 1.323 | 
CO-7056 (antisense eT*eG*e[5mC]*eT*e[5mC]*eA*e[5mC]*e[5mC]*e[5mC]*e[5mC]*e[5mC]*e[5mC]*eT*e[5mC]*eA*e[5mC]*e[5mC]*eT*eT*eG) | 1.491 | 
CO-7046 (antisense eT*eG*eT*eG*eT*eT*eT*eT*eG*e[5mC]*eT*eT*eG*eG*eT*e[5mC]*eA*eA*eG*eA) | 1.243 | 
CO-7024 (antisense eG*e[5mC]*eT*eT*eA*eT*e[5mC]*eT*eG*eG*eA*eA*eA*eA*eT*eA*eA*eT*eG*e[5mC]) | 1.415 | 
CO-11242 (antisense eG*eTeG*eG*lAeG*e[5mC]*eAeA*lA*e[5mC]eT*eA*eGlG*e[5mC]*eAe[5mC]*eT*eG) |  | ABCB11 FC mRNA (5 μM ASO vs. untreated): 1.49 fold change
CO-6992 (antisense eT*eG*eG*lA*eT*eGeT*lA*eG*eA*eT*lG*eA*eA*eT*lG*eG*e[5mC]*eA*eA) | 0.992 | 
CO-11207 (antisense eT*eG*eTeT*eT*eTeG*e[5mC]*eTeT*eG*eGeT*e[5mC]*eAeA*eG*eAeG*eG) |  | ABCB11 FC mRNA (5 μM ASO vs. untreated): 0.91 fold change
CO-7009 (antisense eT*eG*eT*eG*eG*eA*eT*dG*dT*dA*dGdA*dT*dG*dA*dA*dT*eG*eG*e[5mC]*eA*eA*eG*eG) | 1.289 | 
CO-7200 (eA*eG*eG*eT*eG*eG*eA*eG*e[5mC]*eA*eA*eA*e[5mC]*eT*eA*eG*eG*e[5mC]*eA*e[5mC]*eT*eG*eA*eG; antisense) | 1.277 | 
CO-7010 (antisense eT*eG*eT*eG*eG*eA*eT*eG*eT*eA*eG*eA*eT*eG*eA*eA*eT*eG*eG*e[5mC]*eA*eA*eG*eG) | 1.293 | 
CO-11205 (antisense eT*eGeT*eT*eT*eTeG*e[5mC]*eT*eTeG*eG*eT*e[5mC]eA*eA*eG*eAeG*eG) |  | ABCB11 FC mRNA (5 μM ASO vs. untreated): 1.11 fold change
CO-11210 (antisense eG*eT*lG*eG*lAeGl[5mC]*eA*lA*eA*l[5mC]*eT*lA*eGlGe[5mC]*lA*e[5mC]*eT*eG) |  | ABCB11 FC mRNA (5 μM ASO vs. untreated): 2.79 fold change
CO-11218 (antisense eG*eTlG*eG*lAeG*l[5mC]*eAlA*eA*l[5mC]eT*lA*eGlG*e[5mC]*lAe[5mC]*eT*eG) |  | ABCB11 FC mRNA (5 μM ASO vs. untreated): 2.86 fold change
CO-3993 (antisense eG*e[5mC]*e[5mC]*e[5mC]*e[5mC]*eT*eT*eG*eA*eA*eT*eA*eA*eT*eT*eT*eT*eT*eG*eT) | 1 | 

Substance | ABCB11 mRNA FC (5 μM ASO vs. UNT) [fold change] | other results
CO-7112 (eT*eA*e[5mC]*eA*eT*dT*dT*eA*dG*dA*eG*dA*d[5mC]*eA*dA*dA*eG*dA*dA*eT*e[5mC]*eG*e[5mC]*eT; antisense) | 0.98 | 
CO-7027 (antisense e[5mC]*eG*eA*e[5mC]*eA*eG*eT*eG*eA*eG*e[5mC]*eT*eT*eA*eT*e[5mC]*eT*eG*eG*eA) | 1.304 | 
CO-7199 (eA*eG*eG*eT*eG*eG*eA*dG*d[5mC]*dA*dA*dA*d[5mC]*dT*dA*dG*dG*e[5mC]*eA*e[5mC]*eT*eG*eA*eG; antisense) | 1.166 | 
CO-4029 (antisense eA*eT*eA*e[5mC]*eT*eT*eG*eT*e[5mC]*eT*e[5mC]*eT*eG*e[5mC]eA*eA*eA*eT*e[5mC]*e[5mC]) | 0.908 | 
CO-11206 (antisense eT*eGeT*eT*eTeT*eG*e[5mC]eT*eT*eGeG*eT*e[5mC]eA*eA*eGeA*eG*eG) |  | ABCB11 FC mRNA (5 μM ASO vs. untreated): 1.02 fold change
CO-7034 (antisense eT*eT*eA*eG*eA*eG*eA*e[5mC]*eA*eA*eA*eG*eA*eA*eT*e[5mC]*eG*e[5mC]*eT*eG) | 1.097 | 
CO-7193: derivative ASO with additional chemical modifications based on parent ASO CO-4535 (eT*eG*eG*e[5mC]*eG*lT*eT*eA*eT*eT*lA*eA*eT*eT*e[5mC]*lT*eA*e[5mC]*eA*eG) | 1.555 | 
CO-7154 (antisense eA*e[5mC]*e[5mC]*eT*eT*dA*dG*eG*dA*dG*eG*dA*dT*eT*dA*dT*eT*dT*dA*eA*e[5mC]*e[5mC]*eT*e[5mC]) | 1.274 | 
CO-7031 (antisense eA*eA*eA*eG*eA*eA*eT*e[5mC]*eG*e[5mC]*eT*eG*eT*eG*eG*e[5mC]*eA*eG*eT*eT) | 1.212 | 
CO-4515 (antisense eG*e[5mC]*e[5mC]*e[5mC]*eA*eA*eA*eT*eG*eA*eG*eG*eT*eG*eA*eT*eA*e[5mC]*eA*eA) | 0.978 | 
CO-4021 (antisense eG*eT*e[5mC]*eT*eT*e[5mC]*eT*eT*eT*eA*eT*eA*eG*e[5mC]*eA*eA*eT*eG*e[5mC]*eT) | 1.301 | 
CO-7104 (eT*eA*eT*e[5mC]*eT*dG*dG*eA*dA*dA*eA*dT*dA*eA*dT*dG*e[5mC]*d[5mC]*dT*eT*eT*e[5mC]*eT*eA; antisense) | 0.918 | 
CO-11202: ASO containing PO-modifications identified in the Table 13 screen in PHHs (antisense eT*eG*eTeT*eT*eT*eG*e[5mC]eT*eT*eG*eG*eTe[5mC]*eA*eA*eG*eAeG*eG) |  | ABCB11 mRNA fold change (PHHs, 5 μM dose (FIG. 14)): ~2 fold; ABCB11 mRNA fold change (PHHs, 10 μM dose (FIG. 14)): ~3.5 fold; ABCB11 mRNA expression, dose response (PHHs, comparison study with OCA, elafibranor, fenofibrate (FIG. 14)): dose-dependent increase; ABCB11 FC mRNA (5 μM ASO vs. untreated): 1.50 fold change
CO-4054 (antisense e[5mC]*eG*eT*eT*e[5mC]*eA*eT*e[5mC]*eT*eT*eT*eG*e[5mC]*eT*eT*eA*eT*eA*e[5mC]*eA) | 1.269 | 
CO-7183 (antisense eG*eT*eG*eG*eA*lG*e[5mC]*eA*eA*eA*l[5mC]*eT*eA*eG*eG*l[5mC]*eA*e[5mC]*eT*eG) | 1.295 | 
CO-4510 (antisense eG*e[5mC]*e[5mC]*eA*e[5mC]*eA*e[5mC]*eG*eT*eT*eT*e[5mC]*eT*eT*eA*eT*eT*eG*e[5mC]*eG) | 1.084 | 
CO-4048 (antisense eA*eG*e[5mC]*eA*eT*e[5mC]*eT*eG*eG*eA*eT*e[5mC]*e[5mC]*eT*eG*e[5mC]*eA*eA*e[5mC]*e[5mC]) | 1.448 | 
CO-11239 (antisense eG*eT*eG*eGlA*eG*e[5mC]*eAeA*lA*e[5mC]*eTeA*eG*lG*e[5mC]eA*e[5mC]*eT*eG) |  | ABCB11 FC mRNA (5 μM ASO vs. untreated): 1.53 fold change
CO-7094 (eA*e[5mC]*e[5mC]*e[5mC]*l[5mC]*e[5mC]*e[5mC]*eT*l[5mC]*eA*e[5mC]e[5mC]*lT*eT*eG*eG*lT*eT*e[5mC]*e[5mC]) | 0.993 | 
CO-7020 (antisense eA*eA*eG*eT*eG*dA*dG*lG*d[5mC]*dA*lT*d[5mC]*dA*lG*dG*dT*lA*dA*dG*eT*eT*e[5mC]*e[5mC]*eT) | 1.133 | 
CO-7062 (eT*e[5mC]*lT*eG*lG*eA*lA*eA*lA*eT*lA*eA*lT*eG*l[5mC]*e[5mC]*lT*eT*eT*e[5mC]; antisense) | 1.218 | 
CO-6978 (antisense eG*eA*eG*eG*e[5mC]*eA*eT*e[5mC]*eA*eG*eG*eT*eA*eA*eG*eT*eT*e[5mC]*e[5mC]*eT) | 1.456 | 
CO-6987 (antisense eT*eG*eG*eA*lT*dG*dT*dA*lG*dA*dT*dG*lA*dA*dT*eG*lG*e[5mC]*eA*eA) | 1.026 | 
CO-7036 (antisense eG*eT*eA*e[5mC]*eA*eT*eT*eT*eA*eG*eA*eG*eA*e[5mC]*eA*eA*eA*eG*eA*eA) | 1.129 | 
